The results in this text go back to patent US20120214847A1, “2-[1-PHENYL-5-HYDROXY-4a-SUBSTITUTED-HEXAHYDROCYCLOPENTA[F]INDAZOL-5-YL]ETHYL PHENYL DERIVATIVES AS GLUCOCORTICOID RECEPTOR LIGANDS” (Merck Sharp & Dohme Corp., priority 2009, published 2012).

The target of this test is T1, human GR (Homo sapiens, UniProt P04150).
T1 construct: naturally expresses the human GR; endogenous in cells
T1 sequence (P04150 1-777): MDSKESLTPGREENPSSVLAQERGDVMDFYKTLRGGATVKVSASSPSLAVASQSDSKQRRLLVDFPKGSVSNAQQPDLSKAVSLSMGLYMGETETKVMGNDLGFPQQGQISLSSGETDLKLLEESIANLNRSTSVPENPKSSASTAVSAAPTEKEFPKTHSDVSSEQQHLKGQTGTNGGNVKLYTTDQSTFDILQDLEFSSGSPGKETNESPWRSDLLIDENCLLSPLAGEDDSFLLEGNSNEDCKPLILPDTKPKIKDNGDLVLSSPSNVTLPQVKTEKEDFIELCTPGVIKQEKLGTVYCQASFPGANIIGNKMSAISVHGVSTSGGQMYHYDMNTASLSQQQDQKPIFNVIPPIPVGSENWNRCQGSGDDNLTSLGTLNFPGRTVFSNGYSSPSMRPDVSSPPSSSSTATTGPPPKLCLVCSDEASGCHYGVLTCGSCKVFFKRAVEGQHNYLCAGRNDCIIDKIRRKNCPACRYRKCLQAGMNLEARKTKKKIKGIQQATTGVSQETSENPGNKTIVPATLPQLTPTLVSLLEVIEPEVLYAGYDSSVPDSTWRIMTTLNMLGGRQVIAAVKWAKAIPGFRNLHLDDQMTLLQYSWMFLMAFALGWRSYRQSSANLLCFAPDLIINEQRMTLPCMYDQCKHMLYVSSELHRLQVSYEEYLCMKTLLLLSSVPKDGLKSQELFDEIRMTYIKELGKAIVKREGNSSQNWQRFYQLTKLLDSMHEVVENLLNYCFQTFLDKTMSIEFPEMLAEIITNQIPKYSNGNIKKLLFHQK
The test is described as follows: Trans-activation modulation of glucocorticoid receptor (GRAMMER), MMTV-LUC reporter in A549 cells. Format: cell-based. Conditions: for Transactivation A549 Cells Grammer Emax (%) / Emax: Emax relative to the activity obtained with 300 nM dexamethasone; for Transactivation A549 Cells Grammer Emax (%) / pEC50: A549 cells; for pEC50: IP = inflection point, read-out: Transactivation A549 Cells Grammer IP; for Emax: A549, A549 cells, read-out: Transactivation A549 Cells Grammer Emax (%).

A word on the Emax: it is the size of the effect at its maximum, as opposed to the concentration needed.

pEC50: −log10 of the molar value.

Take `CC[C@]12Cc3cnn(-c4ccccc4)c3C=C1CC[C@@]2(O)CC(O)c1ccccn1` (single isomer, unassigned) [Example 82a]: the “Transactivation A549 Cells Grammer Emax (%)” value is 20% and the pEC50 was 6.55.

With `OCc1ccccc1CC[C@]1(O)CCC2=Cc3c(cnn3-c3ccc(F)cc3)C[C@@]21C1CC1` [Example 2, (4aR,5R)-4a-Cyclopropyl-1-(4-fluorophenyl)-5-{2-[2-(hydroxymethyl)phenyl]ethyl}-1,4,4a,5,6,7-hexahydrocyclopenta[f]indazol-5-ol], the Emax was found to be 24% and the pEC50 is 7.66.

On to `NC(=O)C(O)c1ccccc1CC[C@]1(O)CCC2=Cc3c(cnn3-c3ccc(F)cc3)C[C@@]21C1CC1` (single isomer, unassigned) [Example 3a], for which the “Transactivation A549 Cells Grammer Emax (%)” value worked out at 7% and the pEC50 is 6.90.

In the case of `CC[C@]12Cc3cnn(-c4ccccc4)c3C=C1CC[C@@]2(O)CC(O)c1ccccn1` (single isomer, unassigned) [Example 82b], the “Transactivation A549 Cells Grammer Emax (%)” value worked out at 10% and the pEC50 is 6.76.

For the compound `CC[C@]12Cc3cnn(-c4ccccc4)c3C=C1CC[C@@]2(O)CCc1ncccc1S(=O)(=O)C(C)C` [Example 81, (4aS,5R)-4a-Ethyl-5-{2-[3-(iso-propylsulfonyl)pyridin-2-yl]ethyl}-1-phenyl-1,4,4a,5,6,7-hexahydrocyclopenta[f]indazol-5-ol], the Emax is 36% and the pEC50 was 7.02.

As to `OC(C[C@]1(O)CCC2=Cc3c(cnn3-c3ccc(F)cc3)C[C@@]21C1CC1)c1ccc(F)cn1` (single isomer, unassigned) [Example 79b], the “Transactivation A549 Cells Grammer Emax (%)” value came out at 8% and the pEC50 is 7.34.

In the case of `CC[C@]12Cc3cnn(-c4ccc(F)cc4)c3C=C1CC[C@@]2(O)CCc1ncccc1S(C)(=O)=O` [Example 80, (4aS,5R)-4a-Ethyl-1-(4-fluorophenyl)-5-{2-[3-(methylsulfonyl)pyridin-2-yl]ethyl}-1,4,4a,5,6,7-hexahydrocyclopenta[f]indazol-5-ol], the Emax was determined as 38% and the pEC50 was 7.25.
